According to ChEMBL document CHEMBL4813973, “Discovery of novel N-benzylbenzamide derivatives as tubulin polymerization inhibitors with potent antitumor activities” (Eur J Med Chem, 2021):
Converted amounts (≈) assume the structure as drawn. One block for each compound: values may come before it.

Assays:
[1] = test system: A-431; experiment: Antiproliferative activity against human A-431 cells assessed as reduction in cell viability incubated for 72 hrs by MTT assay; type: functional, cell-based; details: A-431, 72 h
[2] = test system: MDA-MB-231; experiment: Antiproliferative activity against human MDA-MB-231 cells assessed as reduction in cell viability incubated for 72 hrs by MTT assay; type: functional, cell-based; details: MDA-MB-231, 72 h
[3] = test system: K562; experiment: cells; details: Homo sapiens, K562, 72 h
Description: Antiproliferative activity against human K562 cells assessed as reduction in cell viability incubated for 72 hrs by MTT assay

[4] = test system: HepG2; experiment: cells; details: Homo sapiens, HepG2, 72 h
[5] = test system: HCT-8; experiment: Antiproliferative activity against human HCT-8 cells assessed as reduction in cell viability incubated for 72 hrs by MTT assay; type: functional, cell-based; details: Homo sapiens, HCT-8, 72 h; read-out: IC50
[6] = test system: L02; experiment: Cytotoxicity against human L02 cells assessed as reduction in cell viability incubated for 72 hrs by MTT assay; type: cell-based; details: L02, 72 h
[7] = test system: H22; experiment: Antiproliferative activity against mouse H22 cells assessed as reduction in cell viability incubated for 72 hrs by MTT assay; type: functional, cell-based; details: H22, 72 h
[8] = Resistant index, ratio of IC50 for ADR-resistant human Bel-7402 cells to IC50 for human Bel-7402 cells; type: functional
[9] = Aqueous solubility of the compound in phosphate buffer at pH 7.4 by HPLC-UV analysis; type: physicochemical
[10] = organism: Sus scrofa; experiment: Inhibition of [3H]colchicine binding to biotinylated pig brain tubulin at 5 uM incubated for 2 hrs in presence of GTP by competitive scintillation proximity assay; type: tissue-based
[11] = Resistant index, ratio of IC50 for taxol-resistant human HCT-8 cells to IC50 for human HCT-8 cells; type: functional
[12] = Resistant index, ratio of IC50 for VCR resistant human K562 cells to IC50 for human K562 cells; type: functional
[13] = test system: Bel-7402; experiment: Antiproliferative activity against ADR-resistant human Bel-7402 cells assessed as reduction in cell viability incubated for 72 hrs by MTT assay; type: functional, cell-based; details: Homo sapiens, Bel-7402, 72 h; read-out: IC50
[14] = n-Octanol/water partition coefficient, logD of the compound incubated for 24 hrs at pH 7.4 by HPLC analysis; type: physicochemical
[15] = organism: Sus scrofa; experiment: Inhibition of [3H]colchicine binding to biotinylated pig brain tubulin at 1 uM incubated for 2 hrs in presence of GTP by competitive scintillation proximity assay; type: tissue-based
[16] = Inhibition of pig brain tubulin polymerisation incubated for 30 mins and measured every 2 mins for 60 mins by spectrophotometric method; type: tissue-based, Sus scrofa
[17] = test system: HCT-8; experiment: Antiproliferative activity against taxol-resistant human HCT-8 cells assessed as reduction in cell viability incubated for 72 hrs by MTT assay; type: functional, cell-based; details: Homo sapiens, HCT-8, 72 h; read-out: IC50
[18] = Aqueous solubility of the compound in aqueous HCl at pH 2 by HPLC-UV analysis; type: physicochemical
[19] = test system: H22; experiment: Antitumor activity against […] xenografted in ICR mouse assessed as reduction of tumor weight at 20 mg/kg/day, iv for 21 days; type: functional; details: 504 h, time 21 day
[20] = Metabolic stability in rat plasma assessed as parent compound remaining at 100 nM measured after 60 mins by HPLC analysis; type: ADME, cell-free; details: 1 h, 0.1 µM

SMILES: COc1ccc(CNC(=O)c2cc(N(C)C)ccc2N2CCOCC2)cc1O
IC50 [1]: 0.105 µM

SMILES: O=C(NCc1ccncc1)c1cc([N+](=O)[O-])ccc1N1CCOCC1
IC50 [1]: > 1 µM

SMILES: COc1ccc(/C=C\c2cc(OC)c(OC)c(OC)c2)cc1O [COMBRETASTATIN A4]
Ratio IC50 [8]: 5.3 | solubility [9]: 1 µg/mL (≈ 3.16 µM) | inhibition [10]: 90.3% | IC50 [4]: 0.01 µM | Ratio IC50 [11]: 7.9 | Ratio IC50 [12]: 8.1 | IC50 [13]: 0.058 µM | logD at 24 h [14]: 2.68 | inhibition [15]: 80.2% | IC50 [7]: 0.015 µM | IC50 [16]: 2.64 µM | IC50 [17]: 0.087 µM | solubility [18]: < 1 µg/mL | inhibition in vivo at 20 mg/kg/day [19]: 54.9%

SMILES: COc1ccc(C(=O)Nc2ccc(N3CCOCC3)c(C(=O)NCc3ccc(OC)c(O)c3)c2)cc1
IC50 [1]: > 1 µM

SMILES: COc1cc(CNC(=O)c2cc([N+](=O)[O-])ccc2N2CCOCC2)cc(OC)c1OC
IC50 [1]: > 1 µM

SMILES: COc1ccc(C(C)NC(=O)c2cc([N+](=O)[O-])ccc2N2CCOCC2)cc1 (centres undefined)
IC50 [1]: 0.241 µM

SMILES: COc1ccc(CNC(=O)c2cc([N+](=O)[O-])ccc2N2CCS(=O)(=O)CC2)cc1O
IC50 [1]: > 1 µM

SMILES: COc1ccc(CNC(=O)c2cc([N+](=O)[O-])ccc2N2CCNCC2)cc1O
IC50 [1]: > 1 µM

SMILES: COc1ccc(CNC(=O)c2cc(Br)ccc2N2CCCCC2)cc1O
IC50 [1]: 0.092 µM

SMILES: COc1ccc(CNC(=O)c2cc(-c3ccncc3)ccc2N2CCOCC2)cc1O
IC50 [1]: 0.388 µM

SMILES: COc1ccc(CNC(=O)c2cc(Cl)ccc2N2CCOCC2)cc1O
IC50 [2]: 0.03 µM | IC50 [3]: 0.032 µM | IC50 [4]: 0.029 µM | IC50 [5]: 0.025 µM | IC50 [6]: 0.095 µM | IC50 [7]: 0.031 µM | IC50 [1]: 0.025 µM

SMILES: COc1ccc(CNC(=O)c2cc(C(F)(F)F)ccc2N2CCOCC2)cc1O
IC50 [2]: 0.057 µM | IC50 [3]: 0.04 µM | IC50 [4]: 0.062 µM | IC50 [5]: 0.056 µM | IC50 [6]: 0.103 µM | IC50 [7]: 0.055 µM | IC50 [1]: 0.037 µM

SMILES: O=C(NCc1ccc(OC(F)(F)F)cc1)c1cc([N+](=O)[O-])ccc1N1CCOCC1
IC50 [1]: > 1 µM

SMILES: COc1ccc(CNC(=O)c2cc(Br)ccc2N2CCOCC2)cc1O
IC50 [2]: 0.029 µM | IC50 [3]: 0.024 µM | IC50 [4]: 0.031 µM | IC50 [5]: 0.03 µM | IC50 [6]: 0.108 µM | IC50 [7]: 0.024 µM | IC50 [1]: 0.03 µM

Second part, led by results:

IC50 [1]: 0.221 µM
SMILES: CSc1ccc(CNC(=O)c2cc([N+](=O)[O-])ccc2N2CCOCC2)cc1

IC50 [2]: 0.055 µM | IC50 [3]: 0.03 µM | IC50 [4]: 0.048 µM | IC50 [5]: 0.062 µM | IC50 [1]: 0.02 µM
SMILES: COc1ccc(CNC(=O)c2ccccc2N2CCOCC2)cc1O
IC50 [6]: 0.105 µM | IC50 [7]: 0.049 µM

IC50 [1]: 0.977 µM
SMILES: COc1ccc(CNC(=O)c2cnccc2N2CCOCC2)cc1O

IC50 [1]: > 1 µM
SMILES: O=C(NCc1ccc(C(F)(F)F)cc1)c1cc([N+](=O)[O-])ccc1N1CCOCC1

solubility [9]: < 1 µg/mL | IC50 [2]: 0.086 µM | IC50 [3]: 0.011 µM | IC50 [4]: 0.026 µM | IC50 [5]: 0.029 µM | logD at 24 h [14]: 2.97 | IC50 [1]: 0.025 µM | solubility [18]: 1110 µg/mL (≈ 3090 µM)
SMILES: COc1ccc(CNC(=O)c2cc(F)ccc2N2CCCCC2)cc1O
IC50 [6]: 0.088 µM | IC50 [7]: 0.032 µM

IC50 [2]: 0.057 µM | IC50 [3]: 0.059 µM | IC50 [4]: 0.061 µM | IC50 [5]: 0.06 µM | IC50 [1]: 0.045 µM
SMILES: COc1ccc(CNC(=O)c2cc([N+](=O)[O-])ccc2N2CCOCC2)cc1O
IC50 [6]: 0.116 µM | IC50 [7]: 0.05 µM

IC50 [1]: > 1 µM
SMILES: O=C(NCc1ccc(O)cc1)c1cc([N+](=O)[O-])ccc1N1CCOCC1

IC50 [1]: 0.057 µM
SMILES: COc1ccc(N2CCCCC2)c(C(=O)NCc2ccc(OC)c(O)c2)c1

IC50 [1]: > 1 µM
SMILES: COc1ccc(CNC(=O)c2cc([N+](=O)[O-])ccc2N2CCOCC2)cc1OC

IC50 [1]: 0.143 µM
SMILES: CCOc1ccc(CNC(=O)c2cc([N+](=O)[O-])ccc2N2CCOCC2)cc1

IC50 [1]: 0.215 µM
SMILES: COc1ccc(CNC(=O)c2cc(-c3ccco3)ccc2N2CCOCC2)cc1O

IC50 [1]: 0.306 µM
SMILES: COc1ccc(CNc2ccc(N3CCOCC3)c(C(=O)NCc3ccc(OC)c(O)c3)c2)cc1

Stabilty [20]: Unstable
SMILES: CCOC(=O)[C@H](CCc1ccccc1)N[C@@H](C)C(=O)N1CCC[C@H]1C(=O)O [ENALAPRIL]
